For one assay, the target named is T1, GPR120 (Homo sapiens, UniProt Q5NUL3).
T1 sequence (Q5NUL3 1-361): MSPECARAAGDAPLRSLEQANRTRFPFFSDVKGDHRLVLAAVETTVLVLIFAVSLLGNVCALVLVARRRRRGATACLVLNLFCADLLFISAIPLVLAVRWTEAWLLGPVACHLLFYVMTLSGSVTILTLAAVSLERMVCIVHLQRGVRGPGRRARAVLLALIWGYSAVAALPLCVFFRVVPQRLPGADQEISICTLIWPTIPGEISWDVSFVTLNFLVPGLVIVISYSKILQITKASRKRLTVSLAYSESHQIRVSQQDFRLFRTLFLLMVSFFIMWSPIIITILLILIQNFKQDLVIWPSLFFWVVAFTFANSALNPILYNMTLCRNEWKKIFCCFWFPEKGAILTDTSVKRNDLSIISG
In words: GPR120 activity, intracellular calcium response in CHO-K1/GPR120/Gα15 cells. In kind it is cell-based. Here is the method:
GPR120 activity was measured by intracellular calcium response. CHO-K1/GPR120/Gα15 cells were regularly passaged to maintain optimal cell health and cultured in Ham's F12 supplemented with 10% fetal bovine serum, 200 μg/mL zeocin, and 100 μg/mL hygromycin. Cells were seeded in a 384-well black-wall, clear-bottom plate at a density of 20,000 cell per well in 20 μL of growth medium 18 hours prior to the start of the experiment, and maintained at 37° C./5% CO2. Cells were loaded with calcium-4, and baseline fluorescence readings were obtained from 1 second to 20 seconds using a fluorescent imaging plate reader (FLIPR). At 20 seconds, (+)-KDT501 (5× final concentration) was added to the reading plate, and the fluorescence signal was monitored for 100 seconds (21 seconds to 120 seconds). α-linolenic acid (LA), eicosapentaenoic acid (EPA), and docosahexaenoic acid (DHA) were used as controls. Data acquisition and analysis was performed using ScreenWorks (version 3.1) and exported to Excel. The average fluorescence value for the first 20 seconds was calculated as the baseline reading. The relative fluorescent unit (ΔRFU) intensity values were calculated with the maximal fluorescent units (21 s to 120 s), subtracting the baseline reading. Data analysis wizard written by GenScript was used to analyze EC50. Dose response curves of antagonist were fitted using the GraphPad Prism 4 four parameter logistic equation Y=Bottom+(Top−Bottom)/(1+10^((LogIC50−X)*HillSlope)), where X is the logarithm of concentration and Y is response.
A general note: Calcium flux is commonly read through the fluorescence of an indicator in the cells.

The subject of assay [1] is Zucker diabetic fatty (ZDF) rats. In words: Glucose and triglyceride levels in a rat diabetes model. In kind it is in vivo. The conditions noted are these: 200 mg/kg orally twice a day. The protocol: 64 six-week-old male Zucker diabetic fatty (ZDF) rats with glucose levels of 175-300 mg/dL were randomized and divided into eight dosing groups: 1) vehicle only (0.5% methylcellulose (w/v), 0.2% Tween 80 (w/v); negative control), 2) (+)-KDT501 25 mg/kg, 3) (+)-KDT501 50 mg/kg, 4) (+)-KDT501 100 mg/kg, 5) (+)-KDT501 200 mg/kg, 6) metformin 200 mg/kg (positive control), 7) metformin 200 mg/kg and (+)-KDT501 100 mg/kg, and 8) pioglitazone 30 mg/kg (positive control). Drugs were administered orally twice a day for 33 days.
Animals were weighed at randomization and once per week thereafter, with administration dosages calculated based on the most recent body weight measurements. Blood samples were collected by tail bleed three days prior to randomization, at randomization, and at days 15 and 29 after the start of treatment. These blood samples were used to perform whole blood glucose evaluations using a glucometer, as well as to measure blood triglyceride levels. Body composition was tested by qNMR on days 2 and 29 after the start of treatment. An oral glucose tolerance test (OGTT) was performed on days 31 and 32 after the start of treatment. Rats underwent an overnight fast prior to OGTT, and tail bleeds for glucose and insulin were performed pre-glucose bolus and at 15, 30, 60, 90, and 120 minutes post-glucose bolus. The glucose bolus was 2 g dextrose/kg of body weight. On day 33, a cardiac puncture was performed for PK analysis.

Assay [2] deals with diet induced obese (DIO) mice. In words: Glucose, insulin, HbA1C and fat mass in high fat diet-induced obesity (DIO) mouse model. In kind it is in vivo. The conditions noted are these: 200 mg/kg orally twice a day. Here is the method: 14 week-old male mice were randomized and divided into seven dosing groups with 16 animals in each group: 1) vehicle only (0.5% methylcellulose (w/v), 0.2% Tween 80 (w/v); negative control), 2) (+)-KDT501 25 mg/kg, 3) (+)-KDT501 50 mg/kg, 4) (+)-KDT501 100 mg/kg, 5) (+)-KDT501 200 mg/kg, 6) metformin 200 mg/kg (positive control), and 7) pioglitazone 30 mg/kg (positive control). Drugs were administered orally twice a day for 30 days.
Animals were weighed at randomization and once per week thereafter, with administration dosages calculated based on the most recent body weight measurements. The mice were maintained on a high fat diet (40% Kcal) (TD95217; prepared by Covance Laboratories, Greenfield, Ind.). Body composition was tested by qNMR on days −5 and 28 after the start of treatment. […]. An oral glucose tolerance test (OGTT) was performed on day 30 after the start of treatment. Mice underwent an overnight fast prior to OGTT, and tail bleeds for glucose and insulin were performed pre-glucose bolus and at 15, 30, 60, 90, and 120 minutes post-glucose bolus. The glucose bolus was 2 g dextrose/kg of body weight. OGTT results were evaluated by area under the curve (AUC) measurements and Dunnett's test.

The target in a further assay is T2, PPARγ (Homo sapiens, UniProt P37231).
T2 sequence (P37231 1-505): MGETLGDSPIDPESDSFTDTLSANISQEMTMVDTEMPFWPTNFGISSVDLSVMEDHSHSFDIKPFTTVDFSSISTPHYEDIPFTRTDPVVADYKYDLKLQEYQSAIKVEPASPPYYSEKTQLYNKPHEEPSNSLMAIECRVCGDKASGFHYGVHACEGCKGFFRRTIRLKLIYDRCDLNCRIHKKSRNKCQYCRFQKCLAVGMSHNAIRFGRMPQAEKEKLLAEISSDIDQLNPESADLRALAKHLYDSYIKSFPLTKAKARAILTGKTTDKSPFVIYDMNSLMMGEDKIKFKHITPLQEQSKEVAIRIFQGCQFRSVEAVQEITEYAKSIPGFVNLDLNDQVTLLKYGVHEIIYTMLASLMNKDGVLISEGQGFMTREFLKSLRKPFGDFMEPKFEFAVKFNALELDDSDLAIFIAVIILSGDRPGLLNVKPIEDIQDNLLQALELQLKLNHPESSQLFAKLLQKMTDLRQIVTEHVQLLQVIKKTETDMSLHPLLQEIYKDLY
In words: PPARγ luciferase reporter assay. In kind it is cell-based. The conditions noted are these: reporter cells, 20 hours. Here is the method: The functional effect of (+)-KDT501 on PPARα, PPARδ, and PPARγ activity was evaluated using a PPAR reporter assay (INDIGO Biosciences, PA). This assay utilizes non-human mammalian cells engineered to provide constitutive high level expression of PPARα, PPARδ, or PPARγ and containing a luciferase report gene specific to the appropriate PPAR. Following activation by agonist binding, PPAR induces expression of the luciferase reporter gene. Luciferase activity therefore provides a surrogate for measuring PPAR activity in agonist-treated cells.
Reporter cells were plated on a 96-well plate at 100 μL per well, and 100 μL of (+)-KDT501 at various final concentrations (25, 12.5, 6.25, 3.125, 1.56 and 0.78 μM) was added to each well. […] 0.1% DMSO was also used as a negative control for each assay. Plates are incubated for 20 hours in a humidified incubator at 37° C. and 5% CO2. After incubation, cell medium was discarded and the cells were treated with 100 μL of luciferase detection reagent for 15 minutes. Plates were analyzed using a luminometer (Victor2, Perkin Elmer). Average relative light unit (RLU) and standard deviation were analyzed using GraphPad Prism.
The PPAR activity assays were repeated as described above using both (+)-KDT501(12.5, 6.25, 3.125, 1.56, and 0.78 μM) and (−)-KDT501 (25, 12.5, 6.25, 3.125, 1.56, and 0.78 μM).
On the technique in general: A reporter such as luciferase makes a cellular process visible.

The mark [3] stands for this setting: CHO-K1/GPR120/Gα15 cells, calcium response, read-out: GPR120 agonistic activity EC50.

Read-outs that look alike come from different tables or passages of the source.

By EC50 is commonly meant the concentration at which the effect is half-maximal. On to `CC/C=C\C/C=C\C/C=C\C/C=C\C/C=C\C/C=C\CCC(=O)O` [DHA, docosahexaenoic acid], for which the EC50 on GPR120 (setting [3]) was found to be 35.3 µM.
Consider `CN(C)C(=N)N=C(N)N` [metformin, reference compound], for which the “whole blood glucose levels” value in assay [1] is “slight increase”. The triglyceride levels entry in assay [1] (days 15 and 29) is reported as “increase”. In assay [2] (day 29, versus vehicle-only), the HbA1C result is on record as “significant difference”. Further, in assay [2] (day 30), the “blood glucose levels from the OGTT” value was “significant decrease” and the “insulin levels from the OGTT” value is “significant decrease”. Besides, the fat mass result in assay [2] (qNMR day 28) was “reduction in fat mass”.
For `CC/C=C\C/C=C\C/C=C\C/C=C\C/C=C\CCCC(=O)O` [EPA, eicosapentaenoic acid], the EC50 at GPR120 (setting [3]) was found to be 116 µM.
Consider `CC/C=C\C/C=C\C/C=C\CCCCCCCC(=O)O` [α-LA, α-linolenic acid], for which the EC50 on GPR120 stood at 36.1 µM.
Turning to `CCCc1nc2c(C)cc(-c3nc4ccccc4n3C)cc2n1Cc1ccc(-c2ccccc2C(=O)O)cc1` [Telmisartan, telmisartan, reference compound], on PPARγ, the PPARγ activity entry is on record as “increased PPARγ activity”.
